Data on one molecule can be found in article PMC8963105, “A Novel Modulator of the Renin–Angiotensin System, Benzoylaconitine, Attenuates Hypertension by Targeting ACE/ACE2 in Enhancing Vasodilation and Alleviating Vascular Inflammation” (Frontiers in Pharmacology, 2022).

As usually defined, the pKd is the negative decadic logarithm of the Kd, by convention in mol/L. Lower therefore signals a high Kd.

The subject of data set [1] is spontaneously hypertension rats (SHRs). The experiment in a line: chronic experiment: blood pressure, heart rate and aorta histology after 14-day oral administration in SHRs. It counts as in vivo, rat. The conditions noted are these: for DBP: 14 days (SHRs 130 ± 5); for MAP: 14 days (SHRs 151 ± 5); for SBP: 14 days (SHRs 172 ± 6). The protocol:
The SHRs were surgically implanted with a catheter via the left femoral artery, vein, and stomach after anesthetizing with 2% pentobarbital sodium (40 mg kg^−1 i.p.,). A pressure sensor was inserted into the terminal of the arterial catheter and connected to a PowerLab system (ADInstruments, New South Wales, Australia) for real-time blood pressure monitoring.
(§1) All three MDAs (BAC, BMC, and BHC) were purchased from Nature-Standard Co., Ltd. (Shanghai, China) and their purities were all over 98%. The anti-hypertensive effects of MDAs were studied in both acute and chronic experiments. The 16-week-old SHRs were used in animal experiments, and each group had six rats. In the acute experiment, drug administration was via i.v. injection. For i.v. injection, the animals were randomly assigned into four groups: vehicle (0.1% DMSO–0.9% salt solution, n = 6), low-dose group (0.6 mg kg^−1 body weight, n = 6), medium-dose group (2 mg kg^−1 body weight, n = 6), and high-dose group (6 mg kg^−1 body weight, n = 6). The drug was administered using a venous catheter. In chronic experiments, the animals were randomly assigned into five groups: vehicle (5% Tween 80–0.9% salt solution, n = 6), captopril group (5 mg kg^−1 body weight, n = 6), low-dose group (3 mg kg^−1 body weight, n = 6), medium-dose group (10 mg kg^−1 body weight, n = 6), and high-dose group (30 mg kg^−1 body weight, n = 6). Oral administration with drug or 5% Tween 80–0.9% salt solution was carried out once a day, and continued for 14 days. The drugs were dissolved in 0.1% DMSO–0.9% salt solution for intravenous injection and in 5% Tween 80–0.9% salt solution for oral administration. Blood pressure was recorded in real time.
Real-time blood pressure level was monitored after drug treatment in the acute and chronic experiments. All animals were surgically implanted with a catheter in the left femoral artery. After connection to the monitor, all animals were placed at room temperature of 25°C for 0.5–1 h and the average blood pressure value was calculated based on a real-time blood pressure curve (10 s of every 30 s).
After euthanizing the rats with sodium pentobarbital (100 mg kg^−1, i.p.) administration in combination with isoflurane inhalation, the aortas were harvested directly according to a previously described method. The aortas were fixed in 4% paraformaldehyde for 24 h and embedded in paraffin. The cross-sections (5 μm) were stained with hematoxylin and eosin or subjected to immunostaining. Immunofluorescence staining for ACE and ACE2 was performed according to the manufacturer’s instructions (Servicebio, Wuhan, China).

A further data set has as its target T1, rhACE2 (Homo sapiens, UniProt Q9BYF1).
T1 construct: purchased Proteintech
Description: SPR assay with rhACE2. Particulars: rhACE2 on chip, 5% DMSO–1.05× PBS. It counts as binding. The protocol:
To screen the potential targets of the MDAs in hypertension, a CVDPlatform (www.cbligand.org/CVD) was used as previously reported ([Zhang et al., 2016a]). The results of database screening were verified by virtual docking with Discovery Studio 3.5 (BIOVIA, San Diego, CA, United States) and then validated in the SPR assay. In the SPR assay, a solution of protein standards was prepared, and the concentration of recombinant human ACE (rhACE) protein and rhACE2 (Proteintech, Rosemont, IL, United States) solution was set to 500 μg ml^−1. […] Finally, the level of binding between the proteins and each molecule was determined based on the K d value.
In general terms: In SPR one partner is held on a chip, and binding of the other changes the refractive index at the surface.

The next data set concerns ACE. Description: serum ACE by ELISA in SHRs after 14-day oral administration. The conditions noted are these: oral 14 days. It counts as in vivo, rat. The source says:
All three MDAs (BAC, BMC, and BHC) were purchased from Nature-Standard Co., Ltd. (Shanghai, China) and their purities were all over 98%. The anti-hypertensive effects of MDAs were studied in both acute and chronic experiments. The 16-week-old SHRs were used in animal experiments, and each group had six rats. In the acute experiment, drug administration was via i.v. injection. For i.v. injection, the animals were randomly assigned into four groups: vehicle (0.1% DMSO–0.9% salt solution, n = 6), low-dose group (0.6 mg kg^−1 body weight, n = 6), medium-dose group (2 mg kg^−1 body weight, n = 6), and high-dose group (6 mg kg^−1 body weight, n = 6). The drug was administered using a venous catheter. […] Blood pressure was recorded in real time.
Blood samples were collected from the left femoral artery of rats at the end point, followed by centrifugation at 1,000 × g for 15 min at 4°C. […] The concentrations of circulating ACE, ACE2, Ang I, Ang II, Ang (1–7), TNF-α, and IL-6 in serum were measured using the ELISA kits [ACE, cat#xy-R2401c, X-Y Biotechnology, Shanghai, China; ACE2, cat#xy-ACE2-Ra, X-Y Biotechnology; Ang I, cat#xy-E12541, X-Y Biotechnology; Ang II, cat#xy-R1430c, X-Y Biotechnology; Ang (1–7), cat#xy-Ang1-7-Ra, X-Y Biotechnology; TNF-α, cat#GM1149, Servicebio, Shanghai, China; IL-6, cat#GM1154, Servicebio] according to the manufacturer’s instructions. […]
On the technique in general: ELISA stands for enzyme-linked immunosorbent assay.

For a further data set, the system named is p-Akt. The experiment in a line: p-Akt in aorta of SHRs (Western blot). The conditions noted are these: vessel of SHRs, oral 14 days. The format is in vivo, rat.
Source text: as §1, with “The drugs were dissolved in 0.1% DMSO–0.9% salt solution for intravenous injection and in 5% Tween 80–0.9% salt solution for oral administration.” left out
The cell samples and tissue sample were collected and placed in ice rapidly. […] Protein concentration in cell lysates was measured using a Bio-Rad DC Protein Assay Kit […]. […]

A further data set deals with mice. Details: method as in Wada et al., 2005. The conditions noted are these: ref Wada et al., 2005; cited from earlier work.

pKd: −log10 of the molar value.

T1 sequence (Q9BYF1 18-805): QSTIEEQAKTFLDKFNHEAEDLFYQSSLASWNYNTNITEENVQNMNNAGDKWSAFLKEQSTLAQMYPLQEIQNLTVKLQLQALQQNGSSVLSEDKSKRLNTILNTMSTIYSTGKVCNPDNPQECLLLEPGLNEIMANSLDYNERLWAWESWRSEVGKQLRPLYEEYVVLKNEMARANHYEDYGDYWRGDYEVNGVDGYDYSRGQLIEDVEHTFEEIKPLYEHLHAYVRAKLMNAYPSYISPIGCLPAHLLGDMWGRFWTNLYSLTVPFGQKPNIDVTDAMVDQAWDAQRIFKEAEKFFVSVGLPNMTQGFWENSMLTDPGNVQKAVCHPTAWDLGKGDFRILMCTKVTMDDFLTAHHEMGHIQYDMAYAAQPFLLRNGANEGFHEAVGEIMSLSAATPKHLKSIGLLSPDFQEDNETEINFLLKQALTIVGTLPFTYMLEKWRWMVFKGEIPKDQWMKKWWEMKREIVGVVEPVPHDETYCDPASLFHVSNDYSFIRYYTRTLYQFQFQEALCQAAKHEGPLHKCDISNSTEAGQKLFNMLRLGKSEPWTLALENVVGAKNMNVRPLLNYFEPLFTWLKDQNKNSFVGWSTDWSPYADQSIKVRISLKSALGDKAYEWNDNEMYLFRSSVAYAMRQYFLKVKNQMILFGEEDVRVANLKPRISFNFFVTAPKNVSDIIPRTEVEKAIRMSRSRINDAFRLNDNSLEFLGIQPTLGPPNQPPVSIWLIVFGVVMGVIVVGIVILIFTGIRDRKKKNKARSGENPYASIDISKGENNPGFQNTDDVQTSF

For `CCN1CC2(COC)C(O)CC(OC)C34C5CC6(O)C(OC)C(O)C(O)(C5C6OC(=O)c5ccccc5)C(C(OC)C23)C14` (stereo not shown) [BAC, Benzoylaconitine], in data set [1] (oral 3 mg kg^−1 once a day, 14 days), the “blood pressure versus vehicle group” value was “did not significantly differ”. Further, in data set [1] (oral 10 mg kg^−1 once a day), the DBP is given as 119 ± 8 mmHg, the MAP turned out to be 136 ± 7 mmHg and the SBP was 154 ± 6 mmHg. Further, the heart rate result in data set [1] (oral 30 mg kg^−1 once a day, 14 days) is given as “reduce the heart rate”. In data set [1] (oral 30 mg kg^−1 once a day), the DBP is 101 ± 7 mmHg, the MAP is on record as 121 ± 6 mmHg and the SBP is 139 ± 6 mmHg. Moreover, the “vascular smooth muscle thickness (hematoxylin and eosin stain of aorta)” value in data set [1] (oral administration, 14 days) was “reverse smooth muscle remodeling”. This molecule had a pKd at rhACE2 of 5.51. In addition, the “level of ACE in blood” value with ACE is “decreased”. In addition, in the data set on p-Akt, the p-Akt entry is reported as “activated”. Further, the “oral median lethal dose (LD50)” value in the data set with mice is recorded as 1,500 mg kg^−1.
